{"source": "ChEMBL document CHEMBL3272151", "about": "“Quantitative structure-activity relationship of chymotrypsin-ligand interactions” (J Med Chem, 1977)", "key": {"[1]": {"experiment": "Binding affinity to chymotrypsin (unknown origin) assessed as deacetylation", "settings": "Homo sapiens"}, "[2]": {"experiment": "Binding affinity to chymotrypsin (unknown origin)", "settings": "Homo sapiens"}}, "data": [{"compound": "C[C@@H](NC=O)C(=O)Oc1ccc([N+](=O)[O-])cc1", "values": [{"measurement": "log K", "setting": "[1]", "value": -1.14}, {"measurement": "log(1/Km)", "setting": "[2]", "value": 5.21}]}, {"compound": "O=COc1ccc([N+](=O)[O-])cc1", "values": [{"measurement": "log K", "setting": "[1]", "value": 0.39}]}, {"compound": "CCC[C@@H](NC(=O)CCl)C(=O)OC", "values": [{"measurement": "log1/Ki", "setting": "[2]", "value": 1.23}]}, {"compound": "COC(=O)[C@@H](C)NC(=O)c1cccnc1", "values": [{"measurement": "log(1/Km)", "setting": "[2]", "value": 2.22}]}, {"compound": "CC(C)(C)CC(=O)Oc1ccc([N+](=O)[O-])cc1", "values": [{"measurement": "log K", "setting": "[1]", "value": -3.82}]}, {"compound": "CC(C)(C)C(=O)Oc1ccc([N+](=O)[O-])cc1", "values": [{"measurement": "log K", "setting": "[1]", "value": -3.69}]}, {"compound": "C[C@@H](NC(=O)OCc1ccccc1)C(=O)Oc1ccc([N+](=O)[O-])cc1", "values": [{"measurement": "log K", "setting": "[1]", "value": -1.05}, {"measurement": "log(1/Km)", "setting": "[2]", "value": 5.08}]}, {"compound": "O=C(Cc1ccccc1)Oc1ccc([N+](=O)[O-])cc1", "values": [{"measurement": "log K", "setting": "[1]", "value": -1.65}]}, {"compound": "CC(=O)NCCCC(=O)Oc1ccc([N+](=O)[O-])cc1", "values": [{"measurement": "log K", "setting": "[1]", "value": -2.21}]}, {"compound": "CC(C)CC(=O)Oc1ccc([N+](=O)[O-])cc1", "values": [{"measurement": "log K", "setting": "[1]", "value": -2.9}]}, {"compound": "CCOC(=O)[C@@H](Cc1ccc(O)cc1)NC(=O)c1cccnc1", "values": [{"measurement": "log1/Ki", "setting": "[2]", "value": 3.1}]}, {"compound": "COC(=O)[C@H](NC(C)=O)C(C)C", "values": [{"measurement": "log1/Ki", "setting": "[2]", "value": 0.71}]}, {"compound": "O=C(CCCCCl)Oc1ccc([N+](=O)[O-])cc1", "values": [{"measurement": "log K", "setting": "[1]", "value": -1.37}]}, {"compound": "CC[C@@H](C)OC(=O)CNC(=O)c1ccccc1", "values": [{"measurement": "log(1/Km)", "setting": "[2]", "value": 2.7}]}, {"compound": "CCCCC(=O)Oc1ccc([N+](=O)[O-])cc1", "values": [{"measurement": "log K", "setting": "[1]", "value": -1.77}]}, {"compound": "O=C(Cc1c[nH]c2ccccc12)Oc1ccc([N+](=O)[O-])cc1", "values": [{"measurement": "log K", "setting": "[1]", "value": -2.52}]}, {"compound": "CCCCCC(=O)Oc1ccc([N+](=O)[O-])cc1", "values": [{"measurement": "log K", "setting": "[1]", "value": -1.44}]}, {"compound": "CC(C)C(=O)Oc1ccc([N+](=O)[O-])cc1", "values": [{"measurement": "log K", "setting": "[1]", "value": -2.45}]}, {"compound": "COC(=O)[C@@H](C)NC(=O)c1ccccn1", "values": [{"measurement": "log(1/Km)", "setting": "[2]", "value": 1.77}]}, {"compound": "COCC(=O)Oc1ccc([N+](=O)[O-])cc1", "values": [{"measurement": "log K", "setting": "[1]", "value": -0.46}]}, {"compound": "CCC[C@@H](NC(=O)c1ccccc1)C(=O)OC", "values": [{"measurement": "log1/Ki", "setting": "[2]", "value": 2.75}]}, {"compound": "COC(=O)[C@@H](C)NC(=O)c1ccccc1", "values": [{"measurement": "log(1/Km)", "setting": "[2]", "value": 2.48}]}, {"compound": "COC(=O)[C@H](NC(=O)c1ccccc1)C(C)C", "values": [{"measurement": "log1/Ki", "setting": "[2]", "value": 2.28}]}, {"compound": "COC(=O)[C@@H](Cc1ccccc1)NC=O", "values": [{"measurement": "log(1/Km)", "setting": "[2]", "value": 3.6}]}, {"compound": "CCC[C@@H](NC(C)=O)C(=O)OC", "values": [{"measurement": "log1/Ki", "setting": "[2]", "value": 0.95}]}, {"compound": "O=C(CCl)Oc1ccc([N+](=O)[O-])cc1", "values": [{"measurement": "log K", "setting": "[1]", "value": 0.47}]}, {"compound": "CCC[C@H](NC(=O)CCl)C(=O)OC", "values": [{"measurement": "log(1/Km)", "setting": "[2]", "value": 2.3}]}, {"compound": "CC(=O)N[C@H](C(=O)Oc1ccc([N+](=O)[O-])cc1)C(C)C", "values": [{"measurement": "log(1/Km)", "setting": "[2]", "value": 3.31}]}, {"compound": "O=C(CI)Oc1ccc([N+](=O)[O-])cc1", "values": [{"measurement": "log K", "setting": "[1]", "value": -0.1}]}, {"compound": "COC(=O)[C@@H](C)NC(=O)c1ccncc1", "values": [{"measurement": "log(1/Km)", "setting": "[2]", "value": 1.57}]}, {"compound": "COC(=O)[C@@H](C)NC(=O)c1ccccc1N", "values": [{"measurement": "log(1/Km)", "setting": "[2]", "value": 2.8}]}, {"compound": "CCOC(=O)C[C@H](NC(C)=O)C(=O)OCC", "values": [{"measurement": "log(1/Km)", "setting": "[2]", "value": 1.64}]}, {"compound": "O=C(CCCCl)Oc1ccc([N+](=O)[O-])cc1", "values": [{"measurement": "log K", "setting": "[1]", "value": -1.27}]}, {"compound": "COC(=O)[C@H](NC(=O)CCl)C(C)C", "values": [{"measurement": "log1/Ki", "setting": "[2]", "value": 0.77}]}, {"compound": "COC(=O)[C@@H](C)NC(=O)c1cccs1", "values": [{"measurement": "log(1/Km)", "setting": "[2]", "value": 2.16}]}, {"compound": "O=C(Oc1ccc([N+](=O)[O-])cc1)c1cccc([N+](=O)[O-])c1", "values": [{"measurement": "log K", "setting": "[1]", "value": -2.85}]}, {"compound": "O=C(CCCl)Oc1ccc([N+](=O)[O-])cc1", "values": [{"measurement": "log K", "setting": "[1]", "value": -1.67}]}, {"compound": "O=C(CCc1ccccc1)Oc1ccc([N+](=O)[O-])cc1", "values": [{"measurement": "log K", "setting": "[1]", "value": -0.73}]}, {"compound": "CCCC(=O)Oc1ccc([N+](=O)[O-])cc1", "values": [{"measurement": "log K", "setting": "[1]", "value": -2.22}]}, {"compound": "O=C(CCCCc1ccccc1)Oc1ccc([N+](=O)[O-])cc1", "values": [{"measurement": "log K", "setting": "[1]", "value": -1.68}]}, {"compound": "O=C(CCCc1c[nH]c2ccccc12)Oc1ccc([N+](=O)[O-])cc1", "values": [{"measurement": "log K", "setting": "[1]", "value": -0.83}]}, {"compound": "CCOC(=O)[C@@H](Cc1ccc(O)cc1)NC(C)=O", "values": [{"measurement": "log1/Ki", "setting": "[2]", "value": 2.4}]}, {"compound": "CCCCCCC(=O)Oc1ccc([N+](=O)[O-])cc1", "values": [{"measurement": "log K", "setting": "[1]", "value": -1.21}]}, {"compound": "CCC(=O)Oc1ccc([N+](=O)[O-])cc1", "values": [{"measurement": "log K", "setting": "[1]", "value": -2.1}]}, {"compound": "COC(=O)[C@@H](Cc1ccccc1)NC(C)=O", "values": [{"measurement": "log1/Ki", "setting": "[2]", "value": 2.64}]}, {"compound": "O=C(CCc1c[nH]c2ccccc12)Oc1ccc([N+](=O)[O-])cc1", "values": [{"measurement": "log K", "setting": "[1]", "value": -0.47}]}, {"compound": "CCCCCCCC(=O)Oc1ccc([N+](=O)[O-])cc1", "values": [{"measurement": "log K", "setting": "[1]", "value": -1.47}]}, {"compound": "CC(=O)N[C@@H](C)C(=O)Oc1ccc([N+](=O)[O-])cc1", "values": [{"measurement": "log(1/Km)", "setting": "[2]", "value": 3.32}]}, {"compound": "CCOC(=O)[C@H](C)NC(C)=O", "values": [{"measurement": "log(1/Km)", "setting": "[2]", "value": 0.6}]}, {"compound": "O=C(CCCc1ccccc1)Oc1ccc([N+](=O)[O-])cc1", "values": [{"measurement": "log K", "setting": "[1]", "value": -0.87}]}, {"compound": "CCOC(=O)CNC(=O)c1ccccc1", "values": [{"measurement": "log(1/Km)", "setting": "[2]", "value": 2.64}]}, {"compound": "CC(=O)Oc1ccc([N+](=O)[O-])cc1", "values": [{"measurement": "log K", "setting": "[1]", "value": -2}]}]}
